From paper PMC11148080, “Ru(II)-based complexes containing 2-thiouracil derivatives suppress liver cancer stem cells by targeting NF-κB and Akt/mTOR signaling” (Cell Death Discovery, 2024)
“And” between values parts separate entries of the source, which are not always exact repeats. Equal values may be shown once.

Experiments:
U-87 MG = experiment: Alamar Blue cytotoxicity; format: cell-based, human; settings: for IC50: U-87 MG, 72 h
Experimental: (§1) The Alamar Blue assay was used to measure cell viability, as previously described. Adherent cells were seeded in 96-well plates at a density of 7 × 10^3 cells per well, and suspended cells were seeded at 3 × 10^4 cells per well. Drugs were added to each well after overnight incubation for adherent cells or immediately after seeding for suspension cells, and incubation continued for an additional 72 h. The positive control included doxorubicin (Laboratorio IMA S.A.I.C., Buenos Aires, Argentina). Four hours (for cell lines) or 24 h (for primary cultures) before the end of incubation, 20 μL of resazurin (30 μM) (Sigma‒Aldrich Co. St. Louis, MO, USA) was added to each well. The absorbance at 570 and 600 nm was measured using a SpectraMax 190 microplate reader (Molecular Devices, Sunnyvale, CA, USA).

SCC4 = experiment: Alamar Blue cytotoxicity; format: cell-based, human; settings: for IC50: SCC4, 72 h
Experimental: as §1

SCC-9 = experiment: Alamar Blue cytotoxicity; format: cell-based, human; settings: for IC50: SCC-9, 72 h
Experimental: as §1

MCF-7 = experiment: Alamar Blue cytotoxicity; format: cell-based, human; settings: for IC50: MCF-7, 72 h
Experimental: as §1

A-375 = experiment: Alamar Blue cytotoxicity; format: cell-based, human; settings: for IC50: A-375, 72 h
Experimental: as §1

A549 = experiment: Alamar Blue cytotoxicity; format: cell-based, human; settings: for IC50: A549, 72 h
Experimental: as §1

THP-1 = experiment: Alamar Blue cytotoxicity; format: cell-based, human; settings: for IC50: THP-1, 72 h
Experimental: as §1

OVCAR-3 = experiment: Alamar Blue cytotoxicity; format: cell-based, human; settings: for IC50: OVCAR-3, 72 h
Experimental: as §1

NB4 = experiment: Alamar Blue cytotoxicity; format: cell-based, human; settings: for IC50: NB4, 72 h
Experimental: as §1

SCC-25 = experiment: Alamar Blue cytotoxicity; format: cell-based, human; settings: for IC50: SCC-25, 72 h
Experimental: as §1

KG-1a = experiment: Alamar Blue cytotoxicity; format: cell-based, human; settings: for IC50: KG-1a, 72 h
Experimental: as §1

HepG2 cells [1] = experiment: May-Grunwald-Giemsa staining morphology; format: cell-based, human; settings: 24, 48, 72 h
Experimental: Cells were grown on coverslips and stained with May-Grunwald-Giemsa. Subsequently, we employed light microscopy to examine and analyze morphological changes.

HepG2 cells [2] = experiment: PARP (Asp214) cleavage by flow cytometry; format: cell-based, human; settings: HepG2, 24 h; 8 μM complex 1, 6 μM complex 2
Experimental: To stain intracellular proteins, the cells were harvested and resuspended in 0.5-1 mL of 4% formaldehyde for 10 min at 37 °C. The tube was then placed on ice for 1 min, after which the cells were prechilled and permeabilized using a sequence of 100% (30 min) to 90% (30 min) methanol with gentle mixing. After washing with incubation buffer (0.5% bovine serum albumin in PBS), primary antibodies were added and incubated for 1 h at room temperature. Finally, the cells were washed with PBS, and flow cytometry was used to measure cell fluorescence.

HepG2 cells [3] = experiment: Transwell migration assay; format: cell-based, human; settings: same concentrations (0.5 μM complex 1, 0.3 μM complex 2), 24 h
Experimental: Transwell plates were used for the cell migration assay, as previously described. The cells were initially incubated in serum-free media for 24 h. We used uncoated cell culture inserts in 6-well plates ([…]; Corning, USA). The upper chamber received 1.5 mL of serum-free medium, whereas the bottom chamber received 2 mL of medium containing 20% FBS. Cotton swabs were used to remove cells that remained in the top chamber after 24 h. The cells on the bottom surface of the membrane were fixed in 4% paraformaldehyde and stained with 0.5% crystal violet. The cells were imaged and counted using an optical microscope (Leica, DMI8).

4T1 = experiment: Alamar Blue cytotoxicity; format: cell-based, mouse; settings: for IC50: 4T1, 72 h
Experimental: as §1

B16-F10 = experiment: Alamar Blue cytotoxicity; format: cell-based, mouse; settings: for IC50: B16-F10, 72 h
Experimental: as §1

HepG2 cells [4] = experiment: CD133 and CD44 expression by flow cytometry; format: cell-based, human; settings: 24 h; for percentage of HepG2 CD133-positive cells: 8 μM complex 1 or 6 μM complex 2
Experimental: To stain the cell surface proteins, the cells were washed with an incubation buffer (0.5% bovine serum albumin in PBS), and then antibodies were added and incubated for 1 h at room temperature. The cells were then washed with PBS, and the fluorescence signal was measured by flow cytometry. CD133 and CD44 were quantified in YO-PRO-1 (Sigma‒Aldrich Co.) negative cells.
(§2) For all flow cytometry analyses, cellular fluorescence was measured using a BD LSRFortessa cytometer, BD FACSDiva software (BD Biosciences) and FlowJo software 10 (FlowJo LLC; Ashland, OR, USA). A minimum of 10,000 events were obtained per sample for intracellular staining, and a minimum of 30,000 events per sample were acquired for cell surface protein staining. Doublets were removed using FSC-A vs FCS-H and SCC-A vs SCC-H. Cellular debris was excluded from the analysis.

HepG2 cells [5] = experiment: DNA content assay (internucleosomal DNA fragmentation, cell cycle); format: cell-based, human; settings: for DNA fragmentation (sub-G0/G1): HepG2, 72 h, control 5.6%
Experimental: as §2, with “Internucleosomal DNA fragmentation and cell cycle distribution were determined by a DNA content assay. The cells were stained with PI using a solution containing 0.1% Triton X-100, 2 µg/mL PI, 0.1% sodium citrate, and 100 μg/mL RNAse (all from Sigma‒Aldrich) and incubated in the dark for 15 min at room temperature. For all” for “For all”

F[P-](F)(F)(F)(F)F.O=c1cc[nH]c([S][Ru+])n1.c1ccc(-c2ccccn2)nc1.c1ccc(P(c2ccccc2)c2ccccc2)cc1.c1ccc(P(c2ccccc2)c2ccccc2)cc1 [Complex 1, trans-[Ru(2TU)(PPh3)2(bipy)]PF6]
IC50 (U-87 MG): 3.53 µM
IC50 (SCC4): 4.77 µM
IC50 (SCC-9): 4.4 µM
IC50 (MCF-7): 9.21 µM
IC50 (A-375): 3.01 µM
IC50 (A549): 17.5 µM
IC50 (THP-1): 4.75 µM
IC50 (OVCAR-3): 2.4 µM and 2.43 µM
IC50 (NB4): 4.79 µM
IC50 (SCC-25): 7.61 µM
IC50 (KG-1a): 4.77 µM
cell morphology (May-Grunwald-Giemsa) (HepG2 cells [1]): cell morphology changes that were associated with apoptosis
PARP (Asp214) cleavage (HepG2 cells [2]): increased levels
motility, transwell cell migration (HepG2 cells [3]): reduced motility
IC50 (4T1): 11.7 µM
IC50 (B16-F10): 3.04 µM
percentage of HepG2 CD133-positive cells (HepG2 cells [4]): reduced
DNA fragmentation (sub-G0/G1) (HepG2 cells [5]; 2 µM): 12.3%
DNA fragmentation (sub-G0/G1) (HepG2 cells [5]; 4 µM): 26.7%
DNA fragmentation (sub-G0/G1) (HepG2 cells [5]; 8 µM): 43.1%

Cc1cc(=O)nc([S][Ru+])[nH]1.F[P-](F)(F)(F)(F)F.c1ccc(-c2ccccn2)nc1.c1ccc(P(c2ccccc2)c2ccccc2)cc1.c1ccc(P(c2ccccc2)c2ccccc2)cc1 [Complex 2, trans-[Ru(6m2TU)(PPh3)2(bipy)]PF6]
IC50 (U-87 MG): 3.69 µM
IC50 (SCC4): 3.48 µM
IC50 (SCC-9): 2.54 µM
IC50 (MCF-7): 7.29 µM
IC50 (A-375): 2 µM
IC50 (A549): 10.5 µM
IC50 (THP-1): 6.47 µM
IC50 (OVCAR-3): 1.6 µM and 1.62 µM
IC50 (NB4): 5.25 µM
IC50 (SCC-25): 3.63 µM
IC50 (KG-1a): 3.77 µM
cell morphology (May-Grunwald-Giemsa) (HepG2 cells [1]): cell morphology changes that were associated with apoptosis
PARP (Asp214) cleavage (HepG2 cells [2]): increased levels
motility, transwell cell migration (HepG2 cells [3]): reduced motility
IC50 (4T1): 4.52 µM
IC50 (B16-F10): 2.75 µM
percentage of HepG2 CD44high cells (HepG2 cells [4]; 6 μM complex 2): reduced
percentage of HepG2 CD133-positive cells (HepG2 cells [4]): reduced
DNA fragmentation (sub-G0/G1) (HepG2 cells [5]; 1.5 µM): 18.6%
DNA fragmentation (sub-G0/G1) (HepG2 cells [5]; 3 µM): 39.1%
DNA fragmentation (sub-G0/G1) (HepG2 cells [5]; 6 µM): 72.9%

COc1cccc2c1C(=O)c1c(O)c3c(c(O)c1C2=O)C[C@@](O)(C(=O)CO)C[C@@H]3O[C@H]1C[C@H](N)[C@H](O)[C@H](C)O1 [Doxorubicin]
IC50 (U-87 MG; Homo sapiens): 0.52 µM
Selectivity index (U-87 MG; IC50 BJ/IC50 U-87 MG): 3.56
Selectivity index (U-87 MG; IC50 MRC-5/IC50 U-87 MG): 3.27
Selectivity index (U-87 MG; IC50 PBMC/IC50 U-87 MG): 2.56
IC50 (SCC4; Homo sapiens, SCC-4): 1.8 µM
Selectivity index (SCC4; IC50 BJ/IC50 SCC4): 1.03
Selectivity index (SCC4; IC50 MRC-5/IC50 SCC4): 0.94
Selectivity index (SCC4; IC50 PBMC/IC50 SCC4): 0.74
IC50 (SCC-9; Homo sapiens): 1 µM
Selectivity index (SCC-9; IC50 BJ/IC50 SCC-9): 1.85
Selectivity index (SCC-9; IC50 MRC-5/IC50 SCC-9): 1.70
Selectivity index (SCC-9; IC50 PBMC/IC50 SCC-9): 1.33
IC50 (MCF-7; Homo sapiens, MCF7): 2.28 µM
Selectivity index (MCF-7; IC50 BJ/IC50 MCF-7): 0.81
Selectivity index (MCF-7; IC50 MRC-5/IC50 MCF-7): 0.75
Selectivity index (MCF-7; IC50 PBMC/IC50 MCF-7): 0.58
IC50 (A-375; Homo sapiens): 0.16 µM
Selectivity index (A-375; IC50 BJ/IC50 A-375): 11.56
Selectivity index (A-375; IC50 MRC-5/IC50 A-375): 10.63
Selectivity index (A-375; IC50 PBMC/IC50 A-375): 8.31
Selectivity index (A549; IC50 BJ/IC50 A549): 0.79
Selectivity index (A549; IC50 MRC-5/IC50 A549): 0.72
Selectivity index (A549; IC50 PBMC/IC50 A549): 0.57
IC50 (THP-1; Homo sapiens): 0.14 µM
Selectivity index (THP-1; IC50 BJ/IC50 THP-1): 13.21
Selectivity index (THP-1; IC50 MRC-5/IC50 THP-1): 12.14
Selectivity index (THP-1; IC50 PBMC/IC50 THP-1): 9.50
IC50 (OVCAR-3; Homo sapiens): 1.06 µM
Selectivity index (OVCAR-3; IC50 BJ/IC50 OVCAR-3): 1.75
Selectivity index (OVCAR-3; IC50 MRC-5/IC50 OVCAR-3): 1.60
Selectivity index (OVCAR-3; IC50 PBMC/IC50 OVCAR-3): 1.25
IC50 (NB4; Homo sapiens, NB-4): 0.09 µM
Selectivity index (NB4; IC50 BJ/IC50 NB4): 20.56
Selectivity index (NB4; IC50 MRC-5/IC50 NB4): 18.89
Selectivity index (NB4; IC50 PBMC/IC50 NB4): 14.78
IC50 (SCC-25; Homo sapiens): 1.44 µM
Selectivity index (SCC-25; IC50 BJ/IC50 SCC-25): 1.28
Selectivity index (SCC-25; IC50 MRC-5/IC50 SCC-25): 1.18
Selectivity index (SCC-25; IC50 PBMC/IC50 SCC-25): 0.92
IC50 (KG-1a; Homo sapiens): 0.07 µM
Selectivity index (KG-1a; IC50 BJ/IC50 KG-1a): 26.43
Selectivity index (KG-1a; IC50 MRC-5/IC50 KG-1a): 24.29
Selectivity index (KG-1a; IC50 PBMC/IC50 KG-1a): 19.00
Selectivity index (4T1; IC50 BJ/IC50 4T1): 1.21
Selectivity index (4T1; IC50 MRC-5/IC50 4T1): 1.11
Selectivity index (4T1; IC50 PBMC/IC50 4T1): 0.87
IC50 (4T1; Mus musculus): 1.53 µM
Selectivity index (B16-F10; IC50 BJ/IC50 B16-F10): 4.30
Selectivity index (B16-F10; IC50 MRC-5/IC50 B16-F10): 3.95
Selectivity index (B16-F10; IC50 PBMC/IC50 B16-F10): 3.09
IC50 (B16-F10; Mus musculus): 0.43 µM
DNA fragmentation (HepG2 cells [5]; HepG2, DOX 1 μM, positive control): also caused DNA fragmentation
